Measurements as given in the NIST ThermoML archive (doi:10.1016/j.tca.2013.01.028).
± gives the expanded uncertainty stated by the source.

Test: excess molar enthalpy (molar enthalpy of mixing); xn = mol fraction of the nth substance listed
Conditions: 303.15 K, 101 kPa, Liquid, Calvet calorimetry

| Compound | excess molar enthalpy (x1 = 0.2481) | excess molar enthalpy (x1 = 0.5) | excess molar enthalpy (x1 = 0.7576) | excess molar enthalpy (x2 = 0.247) | excess molar enthalpy (x2 = 0.4944) | excess molar enthalpy (x2 = 0.7685) |
| --- | --- | --- | --- | --- | --- | --- |
| c1ccccc1 [benzene] + CCCCCCC | 0.145 ± 0.00167 kcal/mol | 0.221 ± 0.00239 kcal/mol | 0.186 ± 0.0021 kcal/mol |  |  |  |
| c1ccccc1 [benzene] + Cc1ccccc1 |  |  |  | 0.013 ± 0.000359 kcal/mol | 0.017 ± 0.000406 kcal/mol | 0.0114 ± 0.000359 kcal/mol |
